ChEMBL document CHEMBL1201862, “PubChem BioAssay data set” (2004)
Activity calls are given as the source filed them.

Experiments:
[1] = target: Bifunctional protein GlmU (Mycobacterium tuberculosis, UniProt P9WMN3); test: Inhibitors of Mycobacterial Glucosamine-1-phosphate acetyl transferase (GlmU). Secondary screen.; design: species or system Mycobacterium tuberculosis H37Rv
[2] = target: Tyrosine-protein kinase ITK/TSK (Homo sapiens, UniProt Q08881); assay type: functional;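 further: affinity for ITK measured as one member of a broad kinase panel profiling binding across the kinome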
Chain of Tyrosine-protein kinase ITK/TSK (Q08881 whole entry): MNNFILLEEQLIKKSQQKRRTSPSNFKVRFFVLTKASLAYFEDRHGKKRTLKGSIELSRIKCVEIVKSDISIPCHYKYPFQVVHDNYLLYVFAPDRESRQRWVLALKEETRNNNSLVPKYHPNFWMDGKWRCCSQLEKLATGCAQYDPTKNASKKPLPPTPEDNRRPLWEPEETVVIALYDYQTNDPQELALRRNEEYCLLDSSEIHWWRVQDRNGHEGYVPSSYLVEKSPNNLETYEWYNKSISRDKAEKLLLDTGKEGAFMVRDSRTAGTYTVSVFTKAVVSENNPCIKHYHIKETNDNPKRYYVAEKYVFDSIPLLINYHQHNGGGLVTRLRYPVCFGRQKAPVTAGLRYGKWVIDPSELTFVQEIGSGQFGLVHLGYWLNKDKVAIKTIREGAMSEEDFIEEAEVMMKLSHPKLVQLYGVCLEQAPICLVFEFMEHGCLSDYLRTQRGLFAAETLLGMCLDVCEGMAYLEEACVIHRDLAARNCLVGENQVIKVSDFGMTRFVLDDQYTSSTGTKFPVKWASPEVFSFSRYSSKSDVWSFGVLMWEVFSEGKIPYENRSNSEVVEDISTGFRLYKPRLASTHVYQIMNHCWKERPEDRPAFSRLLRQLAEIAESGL

[3] = target: RAC-gamma serine/threonine-protein kinase (Homo sapiens, UniProt Q9Y243); assay type: functional
[4] = target: Protein kinase C iota type (Homo sapiens, UniProt P41743); assay type: functional;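 further: measured within a kinome-wide kinase panel, PRKCI as panel member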
[5] = target: Fibroblast growth factor receptor 1 (Homo sapiens, UniProt P11362); assay type: functional
[6] = target: Casein kinase II subunit alpha (Homo sapiens, UniProt P68400); assay type: functional
[7] = target: Protein kinase C zeta type (Homo sapiens, UniProt Q05513); assay type: functional;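 further: measured as one member of a broad kinase profiling panel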
[8] = target: Dual specificity protein kinase CLK2 (Homo sapiens, UniProt P49760); assay type: functional
[9] = target: Interleukin-1 receptor-associated kinase 4 (Homo sapiens, UniProt Q9NWZ3); assay type: functional
[10] = target: Tyrosine-protein kinase Lyn (Homo sapiens, UniProt P07948); assay type: functional;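 further: lyn as one member of a kinase panel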
[11] = target: Serine/threonine-protein kinase PLK3 (Homo sapiens, UniProt Q9H4B4); assay type: functional
[12] = target: Serine/threonine-protein kinase Nek4 (Homo sapiens, UniProt P51957); assay type: functional
[13] = target: Dual specificity tyrosine-phosphorylation-regulated kinase 3 (Homo sapiens, UniProt O43781); assay type: functional;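 further: measured as one member of a broad kinase panel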
[14] = target: Serine/threonine-protein kinase 17A (Homo sapiens, UniProt Q9UEE5); assay type: functional
[15] = target: Death-associated protein kinase 3 (Homo sapiens, UniProt O43293); assay type: functional;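 further: measured as one member of a kinome-wide profiling panel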
[16] = target: Vascular endothelial growth factor receptor 3 (Homo sapiens, UniProt P35916); assay type: functional;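 further: value from a kinome-wide profiling panel, with FLT4 as the panel member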
[17] = target: Calcium/calmodulin-dependent protein kinase type II subunit beta (Homo sapiens, UniProt Q13554); assay type: functional
Chain of Calcium/calmodulin-dependent protein kinase type II subunit beta (Q13554 whole entry): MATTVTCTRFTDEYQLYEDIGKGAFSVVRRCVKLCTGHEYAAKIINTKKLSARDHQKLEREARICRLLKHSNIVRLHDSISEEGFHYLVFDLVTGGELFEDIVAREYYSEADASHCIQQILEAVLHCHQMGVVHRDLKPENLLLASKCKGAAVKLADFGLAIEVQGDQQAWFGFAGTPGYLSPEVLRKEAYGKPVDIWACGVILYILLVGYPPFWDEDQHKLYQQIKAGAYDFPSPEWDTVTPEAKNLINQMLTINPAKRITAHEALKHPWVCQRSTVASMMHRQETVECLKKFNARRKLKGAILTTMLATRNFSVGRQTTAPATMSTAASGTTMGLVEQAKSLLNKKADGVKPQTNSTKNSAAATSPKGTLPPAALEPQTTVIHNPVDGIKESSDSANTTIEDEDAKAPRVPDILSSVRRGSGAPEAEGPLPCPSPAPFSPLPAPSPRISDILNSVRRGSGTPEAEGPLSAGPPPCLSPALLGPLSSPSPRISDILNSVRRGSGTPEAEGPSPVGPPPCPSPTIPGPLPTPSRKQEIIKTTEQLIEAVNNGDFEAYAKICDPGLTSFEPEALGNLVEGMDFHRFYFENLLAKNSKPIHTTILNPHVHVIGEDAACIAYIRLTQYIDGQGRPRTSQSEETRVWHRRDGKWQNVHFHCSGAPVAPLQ

[18] = target: Receptor tyrosine-protein kinase erbB-2 (Homo sapiens, UniProt P04626); test: Navigating the Kinome. Panel member name: ERBB2; assay type: functional
[19] = target: Mitogen-activated protein kinase 9 (Homo sapiens, UniProt P45984); assay type: functional;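 further: value from a kinome panel profiling assay, MAPK9 panel entry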
[20] = target: Ribosomal protein S6 kinase beta-1 (Homo sapiens, UniProt P23443); assay type: functional;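 further: measured as one member of a kinome-wide profiling panel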
[21] = target: 3-phosphoinositide-dependent protein kinase 1 (Homo sapiens, UniProt O15530); assay type: functional;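 further: value comes from the Navigating the Kinome panel, PDPK1 member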
[22] = target: Tyrosine-protein kinase receptor TYRO3 (Homo sapiens, UniProt Q06418); assay type: functional;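 further: TYRO3 value obtained as one member of a kinome-wide profiling panel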
[23] = target: Tyrosine-protein kinase Fyn (Homo sapiens, UniProt P06241); assay type: functional
[24] = target: Insulin-like growth factor 1 receptor (Homo sapiens, UniProt P08069); test: Navigating the Kinome. Panel member name: IGF1R; assay type: functional
[25] = target: Casein kinase I isoform gamma-1 (Homo sapiens, UniProt Q9HCP0); assay type: functional;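 further: measured as the CSNK1G1 member of a kinome profiling panel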
[26] = target: Mitogen-activated protein kinase 1 (Homo sapiens, UniProt P28482); assay type: functional
[27] = target: Dual specificity tyrosine-phosphorylation-regulated kinase 1B (Homo sapiens, UniProt Q9Y463); test: Navigating the Kinome. Panel member name: DYRK1B; assay type: functional
[28] = target: Serine/threonine-protein kinase N2 (Homo sapiens, UniProt Q16513); assay type: functional
[29] = target: Serine/threonine-protein kinase BRSK1 (Homo sapiens, UniProt Q8TDC3); assay type: functional;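 further: measured within a kinome-wide kinase panel, with the target listed as KIAA1811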
[30] = target: Mitogen-activated protein kinase 8 (Homo sapiens, UniProt P45983); assay type: functional;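 further: value comes from one member of a kinome-wide kinase profiling panel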
[31] = target: Glycogen synthase kinase-3 beta (Homo sapiens, UniProt P49841); assay type: functional;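 further: value comes from a broad kinome profiling panel, with GSK3B as the panel member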
[32] = target: G protein-coupled receptor kinase 5 (Homo sapiens, UniProt P34947); test: Navigating the Kinome. Panel member name: GPRK5; assay type: functional
Chain of G protein-coupled receptor kinase 5 (P34947 whole entry): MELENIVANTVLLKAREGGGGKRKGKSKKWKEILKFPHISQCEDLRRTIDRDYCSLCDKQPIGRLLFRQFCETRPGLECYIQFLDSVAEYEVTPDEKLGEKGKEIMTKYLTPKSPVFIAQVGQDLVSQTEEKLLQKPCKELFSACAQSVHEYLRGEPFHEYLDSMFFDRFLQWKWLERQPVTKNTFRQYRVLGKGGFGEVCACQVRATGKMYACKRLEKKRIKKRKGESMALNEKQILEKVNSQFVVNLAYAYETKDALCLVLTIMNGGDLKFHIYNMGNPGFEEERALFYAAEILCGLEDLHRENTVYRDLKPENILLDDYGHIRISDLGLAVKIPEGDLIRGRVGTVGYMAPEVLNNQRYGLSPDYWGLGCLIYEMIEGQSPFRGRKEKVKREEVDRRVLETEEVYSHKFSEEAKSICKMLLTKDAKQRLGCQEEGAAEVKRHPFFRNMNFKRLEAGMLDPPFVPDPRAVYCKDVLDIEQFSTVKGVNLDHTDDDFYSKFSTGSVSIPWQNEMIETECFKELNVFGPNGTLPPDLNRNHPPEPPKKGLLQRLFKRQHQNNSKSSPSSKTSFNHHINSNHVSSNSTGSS

[33] = target: Glycogen synthase kinase-3 alpha (Homo sapiens, UniProt P49840); assay type: functional;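 further: GSK3A result taken from a broad kinome-wide kinase panel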
Chain of Glycogen synthase kinase-3 alpha (P49840 whole entry): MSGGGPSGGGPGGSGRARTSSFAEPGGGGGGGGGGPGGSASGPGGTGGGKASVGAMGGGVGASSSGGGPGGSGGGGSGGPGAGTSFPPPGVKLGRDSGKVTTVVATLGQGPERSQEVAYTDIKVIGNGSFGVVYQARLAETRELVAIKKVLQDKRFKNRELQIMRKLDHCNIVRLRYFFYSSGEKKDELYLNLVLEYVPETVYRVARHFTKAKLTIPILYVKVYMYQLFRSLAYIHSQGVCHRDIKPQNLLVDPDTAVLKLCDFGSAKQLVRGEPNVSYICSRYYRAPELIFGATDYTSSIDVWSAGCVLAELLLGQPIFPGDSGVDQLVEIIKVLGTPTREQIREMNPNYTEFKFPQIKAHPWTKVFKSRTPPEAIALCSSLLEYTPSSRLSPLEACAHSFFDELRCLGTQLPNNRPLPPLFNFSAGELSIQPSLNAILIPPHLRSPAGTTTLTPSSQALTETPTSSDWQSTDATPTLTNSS

SRSF protein kinase 1 = SRSF protein kinase 1 (Homo sapiens, UniProt Q96SB4); assay type: functional;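 further: measured as one member of a kinome-wide kinase profiling panel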
Activin receptor type-1 = Activin receptor type-1 (Homo sapiens, UniProt Q04771); test: Navigating the Kinome. Panel member name: ACVR1; assay type: functional
[34] = target: Dual specificity mitogen-activated protein kinase kinase 1 (Homo sapiens, UniProt Q02750); test: Navigating the Kinome. Panel member name: MAP2K1; assay type: functional
Chain of Dual specificity mitogen-activated protein kinase kinase 1 (Q02750 whole entry): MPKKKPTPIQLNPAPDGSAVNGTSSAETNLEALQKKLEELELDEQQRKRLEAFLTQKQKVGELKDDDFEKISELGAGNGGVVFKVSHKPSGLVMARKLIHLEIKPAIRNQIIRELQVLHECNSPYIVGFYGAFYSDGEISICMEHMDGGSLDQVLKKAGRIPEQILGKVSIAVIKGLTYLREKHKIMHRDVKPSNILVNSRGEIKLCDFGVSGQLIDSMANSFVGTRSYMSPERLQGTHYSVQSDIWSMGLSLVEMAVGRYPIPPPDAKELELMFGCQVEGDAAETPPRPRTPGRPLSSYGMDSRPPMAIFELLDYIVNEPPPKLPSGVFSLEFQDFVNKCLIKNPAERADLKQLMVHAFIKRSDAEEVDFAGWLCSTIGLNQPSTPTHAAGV

[35] = target: 5'-AMP-activated protein kinase catalytic subunit alpha-1 (Homo sapiens, UniProt Q13131); assay type: functional
Chain of 5'-AMP-activated protein kinase catalytic subunit alpha-1 (Q13131 whole entry): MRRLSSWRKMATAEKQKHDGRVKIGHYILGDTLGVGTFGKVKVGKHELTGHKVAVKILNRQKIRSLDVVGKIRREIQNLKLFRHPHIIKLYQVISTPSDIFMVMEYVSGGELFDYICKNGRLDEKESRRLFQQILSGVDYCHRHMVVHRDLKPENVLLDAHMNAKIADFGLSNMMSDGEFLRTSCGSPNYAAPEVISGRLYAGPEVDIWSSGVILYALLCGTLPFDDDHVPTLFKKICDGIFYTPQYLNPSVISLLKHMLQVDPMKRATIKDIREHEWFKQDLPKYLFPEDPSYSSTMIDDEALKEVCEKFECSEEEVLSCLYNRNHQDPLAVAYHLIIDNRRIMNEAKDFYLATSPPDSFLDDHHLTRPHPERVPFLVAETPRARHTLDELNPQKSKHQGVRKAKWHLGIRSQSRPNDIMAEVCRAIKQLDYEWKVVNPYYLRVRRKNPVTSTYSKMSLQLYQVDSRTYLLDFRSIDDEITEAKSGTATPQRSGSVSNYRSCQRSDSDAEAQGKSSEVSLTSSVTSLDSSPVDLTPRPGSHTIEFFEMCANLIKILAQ

[36] = target: Proto-oncogene tyrosine-protein kinase Src (Homo sapiens, UniProt P12931); assay type: functional;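 further: SRC entry within a kinome-wide kinase profiling panel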
[37] = target: Casein kinase I isoform delta (Homo sapiens, UniProt P48730); assay type: functional;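 further: measured as one member (CSNK1D) of a kinome panel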
[38] = target: Serine/threonine-protein kinase Chk1 (Homo sapiens, UniProt O14757); assay type: functional;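 further: measured as one member of a kinome-wide kinase profiling panel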
[39] = target: Protein kinase C delta type (Homo sapiens, UniProt Q05655); assay type: functional
[40] = target: Mitogen-activated protein kinase 12 (Homo sapiens, UniProt P53778); assay type: functional;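 further: measured as one member of a kinome-wide kinase profiling panel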
[41] = target: Cyclin-dependent kinase 1 (Homo sapiens, UniProt P06493); assay type: functional;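 further: Kinome-wide panel profiling, with the target listed as panel member CDC2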
Chain of Cyclin-dependent kinase 1 (P06493 whole entry): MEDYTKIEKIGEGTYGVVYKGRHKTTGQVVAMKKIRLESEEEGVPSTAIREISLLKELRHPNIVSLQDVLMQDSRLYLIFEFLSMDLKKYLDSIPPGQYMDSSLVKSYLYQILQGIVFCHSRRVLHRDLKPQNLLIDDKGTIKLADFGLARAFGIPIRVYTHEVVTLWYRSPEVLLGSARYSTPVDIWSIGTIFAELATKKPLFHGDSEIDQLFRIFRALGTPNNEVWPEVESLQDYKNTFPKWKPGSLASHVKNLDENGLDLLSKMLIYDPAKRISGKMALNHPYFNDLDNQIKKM

[42] = target: Serine/threonine-protein kinase D3 (Homo sapiens, UniProt O94806); assay type: functional;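 further: determined within a kinase panel screen, with PRKCN as the panel member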
Chain of Serine/threonine-protein kinase D3 (O94806 whole entry): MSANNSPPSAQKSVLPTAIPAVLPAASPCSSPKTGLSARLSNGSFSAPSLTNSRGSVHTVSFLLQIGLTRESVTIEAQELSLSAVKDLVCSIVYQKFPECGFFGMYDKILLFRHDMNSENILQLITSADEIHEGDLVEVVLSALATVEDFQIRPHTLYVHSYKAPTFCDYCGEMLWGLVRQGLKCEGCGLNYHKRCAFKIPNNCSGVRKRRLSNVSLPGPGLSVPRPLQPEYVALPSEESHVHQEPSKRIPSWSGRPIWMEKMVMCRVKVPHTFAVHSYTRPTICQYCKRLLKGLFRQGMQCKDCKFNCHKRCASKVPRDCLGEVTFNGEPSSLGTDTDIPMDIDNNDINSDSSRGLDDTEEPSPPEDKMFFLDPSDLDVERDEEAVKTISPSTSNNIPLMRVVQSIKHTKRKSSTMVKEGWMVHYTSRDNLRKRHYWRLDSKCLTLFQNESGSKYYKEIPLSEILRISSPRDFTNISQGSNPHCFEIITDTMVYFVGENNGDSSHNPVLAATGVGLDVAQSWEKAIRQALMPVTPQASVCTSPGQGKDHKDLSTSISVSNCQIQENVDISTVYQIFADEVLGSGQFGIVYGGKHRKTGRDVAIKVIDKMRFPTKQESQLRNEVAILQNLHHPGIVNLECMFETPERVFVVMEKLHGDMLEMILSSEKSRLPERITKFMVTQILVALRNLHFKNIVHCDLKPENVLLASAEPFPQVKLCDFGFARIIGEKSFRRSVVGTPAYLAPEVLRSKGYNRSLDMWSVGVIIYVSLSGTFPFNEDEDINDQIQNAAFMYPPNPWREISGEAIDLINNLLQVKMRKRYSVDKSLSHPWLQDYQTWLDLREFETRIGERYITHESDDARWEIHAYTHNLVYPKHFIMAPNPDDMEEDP

[43] = target: Cyclin-dependent kinase 2 (Homo sapiens, UniProt P24941); assay type: functional;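 further: CDK2 measured as one member of a broad kinome profiling panel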
[44] = target: Mitogen-activated protein kinase kinase kinase kinase 2 (Homo sapiens, UniProt Q12851); assay type: functional;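 further: measured as one member of a kinome-wide kinase panel, with MAP4K2 as the panel entry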
[45] = target: Serine/threonine-protein kinase TAO1 (Homo sapiens, UniProt Q7L7X3); assay type: functional

Chain of Bifunctional protein GlmU (P9WMN3 whole entry): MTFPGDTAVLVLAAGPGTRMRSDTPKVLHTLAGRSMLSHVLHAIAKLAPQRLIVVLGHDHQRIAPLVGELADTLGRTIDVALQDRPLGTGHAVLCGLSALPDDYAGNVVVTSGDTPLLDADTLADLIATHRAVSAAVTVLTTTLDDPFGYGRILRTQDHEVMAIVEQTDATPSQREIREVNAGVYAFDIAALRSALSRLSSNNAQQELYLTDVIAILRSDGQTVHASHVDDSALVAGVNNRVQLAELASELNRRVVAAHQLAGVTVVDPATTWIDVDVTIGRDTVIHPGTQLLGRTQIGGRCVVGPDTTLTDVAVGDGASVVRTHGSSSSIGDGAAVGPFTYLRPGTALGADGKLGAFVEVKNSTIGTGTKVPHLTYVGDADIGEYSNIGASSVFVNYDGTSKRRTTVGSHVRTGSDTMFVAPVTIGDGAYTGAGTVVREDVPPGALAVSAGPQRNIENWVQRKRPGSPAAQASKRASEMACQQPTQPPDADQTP

With `Cc1ccc(/C=C2/C(=O)c3ccc(C(=O)O)cc3C2=O)o1` the IC50 [1] was 174000 nM (active).
In the case of `Clc1cc(NC2CCCCC2)nc(-c2c[nH]c3ncccc23)n1`, the Ki [2] is reported as > 1580 nM (inactive), the Ki [3] is reported as > 10000 nM (inactive) and the Ki [4] is reported as 1000 nM (active). For the same compound, the Ki [5] was > 3980 nM (inactive), the Ki [6] was 251 nM (active) and the Ki [7] was 1260 nM (active). For the same compound, the Ki [8] was > 3160 nM (inactive), the Ki [9] was 1260 nM (active) and the Ki [10] was 631 nM (active). The Ki [11] was 3980 nM (active), the Ki [12] was 2510 nM (active) and the Ki [13] was 100 nM (active). The Ki [14] was > 2510 nM (inactive), the Ki [15] was 2510 nM (active) and the Ki [16] was 1000 nM (active). The Ki [17] was 3160 nM (active), the Ki [18] was > 1580 nM (inactive) and the Ki [19] was 3160 nM (active). For the same compound, the Ki [20] was 501 nM (active), the Ki [21] was 79.4 nM (active) and the Ki [22] was > 2510 nM (inactive). The Ki [23] was > 794 nM (inactive), the Ki [24] was > 2000 nM (inactive) and the Ki [25] was 2510 nM (active). The Ki [26] was 7940 nM (active), the Ki [27] was 501 nM (active) and the Ki [28] was 126 nM (active). The Ki [29] was 2000 nM (active), the Ki [30] was 2510 nM (active) and the Ki [31] was 1260 nM (active). For the same compound, the Ki [32] was > 3980 nM (inactive), the Ki [33] was 1260 nM (active) and the Ki (SRSF protein kinase 1) was > 7940 nM (inactive). The Ki (Activin receptor type-1) was > 3980 nM (inactive), the Ki [34] was 251 nM (active) and the Ki [35] was > 2000 nM (inactive). For the same compound, the Ki [36] was > 2000 nM (inactive), the Ki [37] was 1260 nM (active) and the Ki [38] was 1000 nM (active). For the same compound, the Ki [39] was 316 nM (active), the Ki [40] was 3980 nM (active) and the Ki [41] was 3160 nM (active). For the same compound, the Ki [42] was > 2510 nM (inactive), the Ki [43] was > 1580 nM (inactive) and the Ki [44] was 398 nM (active). For the same compound, the Ki [45] was > 6310 nM (inactive).
